Assay results from patent publication US20220332708A1 (Cytokinetics, Inc., priority 2021, published 2022).

System: Bovine cardiac myofibrils
Assay: Dose-dependent myofibril ATPase modulation (calcium-buffered, pyruvate kinase and lactate dehydrogenase-coupled ATPase assay at pCa25)
Format: biochemical
Settings: concentration at which ATPase activity was 1.4-fold higher than the bottom of the dose curve, mean of a minimum of two independent tests
Description: In Vitro Model of Dose-Dependent Myofibril ATPase Modulation
Dose responses were measured using a calcium-buffered, pyruvate kinase and lactate dehydrogenase-coupled ATPase assay containing the following reagents (concentrations expressed are final assay concentrations): Potassium PIPES (12 mM), MgCl2 (2 mM), ATP (1 mM), DTT (1 mM), BSA (0.1 mg/ml), NADH (0.5 mM), PEP (1.5 mM), pyruvate kinase (4 U/ml), lactate dehydrogenase (8 U/ml), and antifoam (90 ppm). The pH was adjusted to 6.80 at 22° C. by addition of potassium hydroxide. Calcium levels were controlled by a buffering system containing 0.6 mM EGTA and varying concentrations of calcium, to achieve a free calcium concentration of 1×10^−4 M to 1×10^−8 M.
Bovine cardiac myofibrils were obtained by homogenizing the appropriate tissue in the presence of detergent. Such treatment removes membranes and majority of soluble cytoplasmic proteins but leaves intact cardiac sarcomeric acto-myosin apparatus. Concentrations of myofibrils were adjusted to achieve the necessary rate of ATP hydrolysis (typically 0.25-1.0 mg/ml).
Chemical entity dose responses were measured at the calcium concentration corresponding to 25% of maximal ATPase activity (pCa25), so a preliminary experiment was performed to test the response of the ATPase activity to free calcium concentrations in the range of 1×10^−4 M to 1×10^−8 M. Subsequently, the assay mixture was adjusted to the pCa25. Assays were performed by first preparing a dilution series of test chemical entity, each with an assay mixture containing potassium Pipes, MgCl2, BSA, DTT, pyruvate kinase, lactate dehydrogenase, myofibrils, antifoam, EGTA, CaCl2), and water. The assay was started by adding an equal volume of solution containing potassium Pipes, MgCl2, BSA, DTT, ATP, NADH, PEP, antifoam, and water. ATP hydrolysis was monitored by absorbance at 340 nm. The resulting dose response curve was fit by the 4 parameter equation y=Bottom+((Top−Bottom)/(1+((EC50/X)^Hill))). […] AC1.4 values reported in the table below are mean values based on a minimum of two independent tests.

Structure (SMILES) | AC1.4 [µM]
CNc1cc2nc(C)[nH]c(=O)c2cc1S(=O)(=O)NC(C)Cc1[nH]c2ccccc2c1C (stereo not shown) [Compound 29, 2-Methyl-N-(1-(3-methyl-1H-indo1-2-yl)propan-2-yl)-7-(methylamino)-4-oxo-3,4-dihydroquinazoline-6-sulfonamide] | 8.204
Cc1[nH]c(S(=O)(=O)N[C@@H]2CCc3c([nH]c4ccccc34)C2)cc1C(=O)N1CC(C)(O)C1 [Compound 43] | 0.1254
CNc1cc2c(cc1S(=O)(=O)N[C@H](C)Cc1cc3ccc(F)cc3[nH]1)c(=O)[nH]c(=O)n2C [Compound 26, (R)-N-(1-(6-fluoro-1H-indo1-2-yl)propan-2-yl)-1-methyl-7-(methylamino)-2,4-dioxo-1,2,3,4-tetrahydroquinazoline-6-sulfonamide] | 2.215
CNC(=O)c1cc(S(=O)(=O)NC2CCc3c([nH]c4ccccc34)C2)[nH]c1C (stereo not shown) [Compound 35, N,2-dimethyl-5-(N-(2,3,4,9-tetrahydro-1H-carbazol-2-yl)sulfamoyl)-1H-pyrrole-3-carboxamide] | 6.2537
CNc1cc2c(cc1S(=O)(=O)NC1CC(c3ccccc3)C1)c(=O)[nH]c(=O)n2C (stereo not shown) [Compound 20, 1-Methyl-7-(methylamino)-2,4-dioxo-N-(3-phenylcyclobutyl)-1,2,3,4-tetrahydroquinazoline-6-sulfonamide] | 3.9537
CNc1ccc(S(=O)(=O)Nc2ccc(N3C[C@H](C)C[C@@H](C)C3)nc2)cc1C#N (racemic) [Compound 1, 3-Cyano-N-(6-(trans-3,5-dimethylpiperidin-1-yl)pyridin-3-yl)-4-(methylamino) benzenesulfonamide] | 14.3998
Cc1[nH]c(S(=O)(=O)N[C@@H]2CCc3c([nH]c4ccccc34)C2)cc1C(N)=O [Compound 38, (R)-2-methyl-5-(N-(2,3,4,9-tetrahydro-1H-carbazol-2-yl)sulfamoyl)-1H-pyrrole-3-carboxamide] | 4.3985
Cc1[nH]c(S(=O)(=O)N[C@H]2C[C@H](c3cc(C(F)(F)F)ccn3)C2)cc1C(=O)N1CC(C#N)C1 [Compound 57, 4-(3-Cyanoazetidine-1-carbonyl)-5-methyl-N-((trans)-3-(4-(trifluoromethyl)pyridin-2-yl)cyclobutyl)-1H-pyrrole-2-sulfonamide] | 0.8572
CNc1cc2c(cc1S(=O)(=O)N[C@H]1C[C@H](Nc3ccccc3)C1)c(=O)[nH]c(=O)n2C [Compound 100, 1-Methyl-7-(methylamino)-2,4-dioxo-N-((1r,3r)-3-(phenylamino)cyclobutyl)-1,2,3,4-tetrahydroquinazoline-6-sulfonamide] | 5.571
CNc1cc2c(cc1S(=O)(=O)NCCCNc1ccccc1)c(=O)[nH]c(=O)n2C [Compound 13, 1-Methyl-7-(methylamino)-2,4-dioxo-N-(3-(phenylamino)propyl)-1,2,3,4-tetrahydroquinazoline-6-sulfonamide] | 9.783
CNc1cc2c(cc1S(=O)(=O)NCCc1cc3ccccc3[nH]1)c(=O)[nH]c(=O)n2C [Compound 21] | 4.8236

Further lines, results first:

AC1.4 [µM] | Structure (SMILES)
0.1121 | Cc1[nH]c(S(=O)(=O)N[C@@H]2Cc3ccc(C(F)(F)F)cc3C2)cc1C(=O)N1CC(C)(C#N)C1 (single isomer, unassigned) [Compound 76]
0.081 | Cc1[nH]c(S(=O)(=O)N[C@]2(Cc3ccc(Cl)cc3)CCOC2)cc1C(=O)N1CC(C)(C#N)C1 (single isomer, unassigned) [Compound 63]
1.3592 | COc1cc2nc(C)[nH]c(=O)c2cc1S(=O)(=O)Nc1ccc(N2C[C@H](C)C[C@@H](C)C2)nc1 [Compound 7, N-(6-((3R,5R)-3,5-dimethylpiperidin-1-yl)pyridin-3-yl)-7-methoxy-2-methyl-4-oxo-3,4-dihydroquinazoline-6-sulfonamide]
0.0793 | Cc1[nH]c(S(=O)(=O)N[C@@H]2COc3cc(F)c(Cl)cc3C2)cc1C(=O)N1CC(C)(C#N)C1 [Compound 73, (S)-N-(6-chloro-7-fluorochroman-3-yl)-4-(3-cyano-3-methylazetidine-1-carbonyl)-5-methyl-1H-pyrrole-2-sulfonamide]
8.4932 | Cc1[nH]c(S(=O)(=O)N[C@H]2COc3cc(Cl)ccc3C2)cc1C(=O)N1CC(C)(C#N)C1 (stereo in doubt) [Compound 16, N-(7-chlorochroman-3-yl)-4-(3-cyano-3-methylazetidine-1-carbonyl)-5-methyl-1H-pyrrole-2-sulfonamide]
0.3215 | CNc1cc2c(cc1S(=O)(=O)N[C@H]1C[C@H](n3cc(C(F)(F)F)c(C)n3)C1)c(=O)[nH]c(=O)n2C [Compound 61]
0.6667 | [2H]C([2H])([2H])c1[nH]c(S(=O)(=O)N[C@@H]2Cc3cc(F)c(Cl)cc3C2)cc1C(=O)N1CC(OC(F)(F)F)C1 [Compound 98, (R)-N-(5-chloro-6-fluoro-2,3-dihydro-1H-inden-2-yl)-5-(methyl-d3)-4-(3-(trifluoromethoxy)azetidine-l-carbonyl)-1H-pyrrole-2-sulfonamide]
0.3162 | Cc1[nH]c(S(=O)(=O)N[C@@H]2COc3cc(F)c(F)cc3C2)cc1C(=O)N1CC(C)(C#N)C1 [Compound 70, (S)-4-(3-cyano-3-methylazetidine-1-carbonyl)-N-(6,7-difluorochroman-3-yl)-5-methyl-1H-pyrrole-2-sulfonamide]
9.2363 | Cc1nc2cc(C)c(S(=O)(=O)Nc3ccc(N4C[C@@H](C)C[C@H](C)C4)nc3)cc2c(=O)[nH]1 (racemic) [Compound 9, N-(6-((trans)-3,5-dimethylpiperidin-1-yl)pyridin-3-yl)-2,7-dimethyl-4-oxo-3,4-dihydroquinazoline-6-sulfonamide]
3.783 | Cc1cc(S(=O)(=O)N[C@@H]2COc3cc(F)c(Cl)cc3[C@@H]2O)cc(N2CC(C)(C)C2)n1 [Compound 87, N-((3R,4S)-6-chloro-7-fluoro-4-hydroxychroman-3-yl)-2-(3,3-dimethylazetidin-1-yl)-6-methylpyridine-4-sulfonamide]
0.166 | Cc1[nH]c(S(=O)(=O)N[C@@H]2Cc3ccc(Cl)cc3C2)cc1C(=O)N1CC(C)(C#N)C1 [Compound 69, (R)-N-(5-chloro-2,3-dihydro-1H-inden-2-yl)-4-(3-cyano-3-methylazetidine-1-carbonyl)-5-methyl-1H-pyrrole-2-sulfonamide]
0.3054 | Cc1[nH]c(S(=O)(=O)N[C@@H]2COc3ccc(Cl)cc3C2)cc1C(=O)N1CC(C)(C#N)C1 [Compound 71, (S)-N-(6-chlorochroman-3-yl)-4-(3-cyano-3-methylazetidine-1-carbonyl)-5-methyl-1H-pyrrole-2-sulfonamide]
1.0081 | Cc1[nH]c(S(=O)(=O)N[C@H]2C[C@H](c3cc(C(F)(F)F)ccn3)C2)cc1C(=O)N1CC(C)(C#N)C1 [Compound 58]
0.1127 | Cc1[nH]c(S(=O)(=O)N[C@@H]2COc3cc(F)c(Cl)cc3[C@@H]2O)cc1C(=O)N1CC(C)(C#N)C1 [Compound 78, N-((3R,4S)-6-chloro-7-fluoro-4-hydroxychroman-3-yl)-4-(3-cyano-3-methylazetidine-1-carbonyl)-5-methyl-1H-pyrrole-2-sulfonamide]
